Measured values reported in ChEMBL document CHEMBL1128729, “Alpha- and beta-adrenoceptors: from the gene to the clinic. 2. Structure-activity relationships and therapeutic applications” (J Med Chem, 1995).

What was measured:
Monoamine oxidase = biological target: T1, Monoamine oxidase (Homo sapiens, UniProt P21397+P27338); assay: Binding affinity for imidazoline receptor I-2; format: protein assay
T1 sequence (P21397 whole entry): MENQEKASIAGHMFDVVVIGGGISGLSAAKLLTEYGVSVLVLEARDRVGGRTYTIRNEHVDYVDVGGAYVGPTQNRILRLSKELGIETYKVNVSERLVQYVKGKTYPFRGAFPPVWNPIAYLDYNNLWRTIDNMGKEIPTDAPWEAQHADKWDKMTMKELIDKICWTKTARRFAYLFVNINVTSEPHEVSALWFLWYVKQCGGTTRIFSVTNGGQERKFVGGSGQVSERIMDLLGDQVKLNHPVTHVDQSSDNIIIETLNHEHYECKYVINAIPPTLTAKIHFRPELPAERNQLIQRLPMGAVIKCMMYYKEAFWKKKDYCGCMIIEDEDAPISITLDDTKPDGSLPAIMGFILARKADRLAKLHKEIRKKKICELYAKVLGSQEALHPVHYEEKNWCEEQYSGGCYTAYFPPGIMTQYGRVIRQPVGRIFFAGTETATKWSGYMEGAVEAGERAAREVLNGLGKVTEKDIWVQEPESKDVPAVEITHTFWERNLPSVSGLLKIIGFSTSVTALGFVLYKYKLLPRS
T1 sequence (P27338 whole entry): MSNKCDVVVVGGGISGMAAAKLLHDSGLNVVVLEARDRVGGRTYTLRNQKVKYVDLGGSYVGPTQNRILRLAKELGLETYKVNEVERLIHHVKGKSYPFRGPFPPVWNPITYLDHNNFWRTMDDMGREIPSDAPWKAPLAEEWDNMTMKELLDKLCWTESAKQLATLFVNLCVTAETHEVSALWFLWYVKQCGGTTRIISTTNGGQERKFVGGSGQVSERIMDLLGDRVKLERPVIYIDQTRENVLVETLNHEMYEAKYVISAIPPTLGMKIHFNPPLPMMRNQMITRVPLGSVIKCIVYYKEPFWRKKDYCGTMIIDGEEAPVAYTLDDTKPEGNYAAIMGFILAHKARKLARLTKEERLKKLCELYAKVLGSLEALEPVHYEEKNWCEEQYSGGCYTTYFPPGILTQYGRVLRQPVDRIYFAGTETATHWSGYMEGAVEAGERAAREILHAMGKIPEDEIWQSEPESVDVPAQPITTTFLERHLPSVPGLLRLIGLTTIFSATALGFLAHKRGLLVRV

[1] = biological target: T2, Alpha-2B adrenergic receptor (Homo sapiens, UniProt P18089); assay: biochemical; format: cell-based, CHO
T2 sequence (P18089 whole entry): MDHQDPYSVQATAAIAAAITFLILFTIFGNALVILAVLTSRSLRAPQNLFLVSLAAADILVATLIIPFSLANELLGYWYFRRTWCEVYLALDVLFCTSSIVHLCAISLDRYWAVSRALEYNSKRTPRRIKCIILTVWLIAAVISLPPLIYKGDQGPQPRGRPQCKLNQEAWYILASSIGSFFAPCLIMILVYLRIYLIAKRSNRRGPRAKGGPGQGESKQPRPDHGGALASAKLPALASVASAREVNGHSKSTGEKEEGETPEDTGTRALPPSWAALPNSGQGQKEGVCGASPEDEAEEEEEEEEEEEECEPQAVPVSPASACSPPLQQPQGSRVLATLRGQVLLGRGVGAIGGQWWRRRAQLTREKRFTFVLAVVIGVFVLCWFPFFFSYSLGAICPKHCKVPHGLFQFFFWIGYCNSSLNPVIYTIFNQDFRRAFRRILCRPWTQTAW

Canis familiaris = species: Canis familiaris; assay: Ability to block B-HT 920-induced contraction in canine saphenous vein.; format: functional; settings: Canis lupus familiaris
Cavia porcellus = species: Cavia porcellus; assay: Ability to block B-HT 920-induced inhibition of inotropic response to field stimulation in superfused guinea pig atrium; format: functional; settings: Cardiac atrium
Oryctolagus cuniculus = species: Oryctolagus cuniculus; assay: Ability to block norepinephrine-induced contraction in rabbit aorta.; format: functional
[2] = biological target: T3, Alpha-1D adrenergic receptor (Homo sapiens, UniProt P25100); assay: biochemical
T3 sequence (P25100 whole entry): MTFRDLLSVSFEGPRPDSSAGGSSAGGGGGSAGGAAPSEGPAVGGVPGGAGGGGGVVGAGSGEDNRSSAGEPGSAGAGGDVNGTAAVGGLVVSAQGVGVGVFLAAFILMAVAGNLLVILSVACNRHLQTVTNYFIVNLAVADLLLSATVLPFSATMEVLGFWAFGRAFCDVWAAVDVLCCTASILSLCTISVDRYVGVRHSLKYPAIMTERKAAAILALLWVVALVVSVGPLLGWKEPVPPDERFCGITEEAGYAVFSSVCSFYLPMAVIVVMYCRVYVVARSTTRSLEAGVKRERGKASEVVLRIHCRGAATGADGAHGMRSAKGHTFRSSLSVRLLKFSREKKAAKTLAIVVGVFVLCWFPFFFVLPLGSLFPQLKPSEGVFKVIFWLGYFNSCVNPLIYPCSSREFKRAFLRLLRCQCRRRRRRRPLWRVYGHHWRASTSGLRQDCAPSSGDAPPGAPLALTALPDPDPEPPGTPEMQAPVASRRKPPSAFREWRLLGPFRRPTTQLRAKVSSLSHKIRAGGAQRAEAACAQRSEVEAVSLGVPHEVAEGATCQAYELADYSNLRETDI
Description: Inhibition of [3H]prazosin binding to human Alpha-1D adrenergic receptor expressed in CHO cells

[3] = biological target: T4, Alpha-1A adrenergic receptor (Homo sapiens, UniProt P35348); assay: biochemical
T4 sequence (P35348 whole entry): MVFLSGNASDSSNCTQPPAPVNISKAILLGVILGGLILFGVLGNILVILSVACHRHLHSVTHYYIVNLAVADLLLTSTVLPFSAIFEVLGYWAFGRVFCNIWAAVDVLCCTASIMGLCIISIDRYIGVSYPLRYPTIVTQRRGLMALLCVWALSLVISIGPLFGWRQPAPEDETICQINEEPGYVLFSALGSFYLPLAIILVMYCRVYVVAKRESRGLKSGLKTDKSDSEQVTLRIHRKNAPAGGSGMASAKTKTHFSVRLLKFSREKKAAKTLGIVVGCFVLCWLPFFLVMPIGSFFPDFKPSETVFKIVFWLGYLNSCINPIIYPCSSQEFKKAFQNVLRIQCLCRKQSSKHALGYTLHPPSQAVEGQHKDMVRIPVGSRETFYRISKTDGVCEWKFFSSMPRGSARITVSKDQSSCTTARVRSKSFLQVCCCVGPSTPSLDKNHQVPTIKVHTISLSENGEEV
Description: Inhibition of [3H]prazosin binding to human Alpha-1A adrenergic receptor expressed in CHO cells

[4] = biological target: T5, Alpha-2A adrenergic receptor (Homo sapiens, UniProt P08913); assay: biochemical
T5 sequence (P08913 whole entry): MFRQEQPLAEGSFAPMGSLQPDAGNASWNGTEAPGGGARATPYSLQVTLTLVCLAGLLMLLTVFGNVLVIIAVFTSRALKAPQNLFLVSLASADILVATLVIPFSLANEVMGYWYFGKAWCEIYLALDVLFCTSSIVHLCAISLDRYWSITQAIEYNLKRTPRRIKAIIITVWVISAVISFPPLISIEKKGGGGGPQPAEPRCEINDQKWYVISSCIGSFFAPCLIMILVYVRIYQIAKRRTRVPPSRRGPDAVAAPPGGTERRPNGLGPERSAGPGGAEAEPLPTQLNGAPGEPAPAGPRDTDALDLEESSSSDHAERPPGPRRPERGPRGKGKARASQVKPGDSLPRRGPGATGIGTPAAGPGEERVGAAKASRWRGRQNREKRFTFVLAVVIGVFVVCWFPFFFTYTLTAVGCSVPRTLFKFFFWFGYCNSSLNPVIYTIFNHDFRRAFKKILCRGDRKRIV

[5] = biological target: T6, Alpha-2C adrenergic receptor (Homo sapiens, UniProt P18825); assay: biochemical
T6 sequence (P18825 whole entry): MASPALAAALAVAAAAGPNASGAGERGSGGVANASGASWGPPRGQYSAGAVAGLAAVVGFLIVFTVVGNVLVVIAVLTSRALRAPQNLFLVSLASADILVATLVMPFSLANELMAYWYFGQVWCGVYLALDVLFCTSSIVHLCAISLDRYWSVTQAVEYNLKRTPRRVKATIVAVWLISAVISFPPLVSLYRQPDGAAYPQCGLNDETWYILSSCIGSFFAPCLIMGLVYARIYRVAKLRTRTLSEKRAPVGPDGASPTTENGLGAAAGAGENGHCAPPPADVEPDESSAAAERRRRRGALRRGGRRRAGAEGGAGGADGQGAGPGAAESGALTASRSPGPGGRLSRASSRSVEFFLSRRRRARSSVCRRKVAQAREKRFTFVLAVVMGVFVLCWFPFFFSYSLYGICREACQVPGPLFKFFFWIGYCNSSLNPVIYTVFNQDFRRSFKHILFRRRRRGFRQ

[6] = biological target: T7, Alpha-1B adrenergic receptor (Homo sapiens, UniProt P35368); assay: biochemical
T7 sequence (P35368 whole entry): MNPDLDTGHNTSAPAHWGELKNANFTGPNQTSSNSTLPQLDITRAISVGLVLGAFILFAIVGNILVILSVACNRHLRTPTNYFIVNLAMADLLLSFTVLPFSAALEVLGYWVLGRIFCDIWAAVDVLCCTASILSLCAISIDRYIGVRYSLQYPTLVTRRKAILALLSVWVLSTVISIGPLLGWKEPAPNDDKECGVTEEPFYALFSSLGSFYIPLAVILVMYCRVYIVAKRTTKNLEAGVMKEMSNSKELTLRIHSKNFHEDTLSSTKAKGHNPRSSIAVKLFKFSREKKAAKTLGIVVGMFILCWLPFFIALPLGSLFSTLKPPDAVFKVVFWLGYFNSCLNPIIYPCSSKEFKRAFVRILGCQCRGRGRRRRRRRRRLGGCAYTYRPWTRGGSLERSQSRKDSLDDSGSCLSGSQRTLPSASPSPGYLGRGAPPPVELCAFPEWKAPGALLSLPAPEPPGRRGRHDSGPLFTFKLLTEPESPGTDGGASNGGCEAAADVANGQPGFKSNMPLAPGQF
Description: Inhibition of [3H]prazosin binding to human Alpha-1B adrenergic receptor expressed in CHO cells

[7] = biological target: Beta-2 adrenergic receptor (Cavia porcellus, UniProt Q8K4Z4); assay: Effective dose for relaxation of guinea pig trachea.
[8] = biological target: Beta-1 adrenergic receptor (Cavia porcellus, UniProt B0FL73); assay: Effective dose required to stimulate contractions in isolated guinea pig atrium.; format: functional, tissue-based, Cardiac atrium
[9] = biological target: Voltage-dependent L-type calcium channel subunit alpha-1C (Rattus norvegicus, UniProt P22002); assay: biochemical
Chain of Voltage-dependent L-type calcium channel subunit alpha-1C (P22002 whole entry): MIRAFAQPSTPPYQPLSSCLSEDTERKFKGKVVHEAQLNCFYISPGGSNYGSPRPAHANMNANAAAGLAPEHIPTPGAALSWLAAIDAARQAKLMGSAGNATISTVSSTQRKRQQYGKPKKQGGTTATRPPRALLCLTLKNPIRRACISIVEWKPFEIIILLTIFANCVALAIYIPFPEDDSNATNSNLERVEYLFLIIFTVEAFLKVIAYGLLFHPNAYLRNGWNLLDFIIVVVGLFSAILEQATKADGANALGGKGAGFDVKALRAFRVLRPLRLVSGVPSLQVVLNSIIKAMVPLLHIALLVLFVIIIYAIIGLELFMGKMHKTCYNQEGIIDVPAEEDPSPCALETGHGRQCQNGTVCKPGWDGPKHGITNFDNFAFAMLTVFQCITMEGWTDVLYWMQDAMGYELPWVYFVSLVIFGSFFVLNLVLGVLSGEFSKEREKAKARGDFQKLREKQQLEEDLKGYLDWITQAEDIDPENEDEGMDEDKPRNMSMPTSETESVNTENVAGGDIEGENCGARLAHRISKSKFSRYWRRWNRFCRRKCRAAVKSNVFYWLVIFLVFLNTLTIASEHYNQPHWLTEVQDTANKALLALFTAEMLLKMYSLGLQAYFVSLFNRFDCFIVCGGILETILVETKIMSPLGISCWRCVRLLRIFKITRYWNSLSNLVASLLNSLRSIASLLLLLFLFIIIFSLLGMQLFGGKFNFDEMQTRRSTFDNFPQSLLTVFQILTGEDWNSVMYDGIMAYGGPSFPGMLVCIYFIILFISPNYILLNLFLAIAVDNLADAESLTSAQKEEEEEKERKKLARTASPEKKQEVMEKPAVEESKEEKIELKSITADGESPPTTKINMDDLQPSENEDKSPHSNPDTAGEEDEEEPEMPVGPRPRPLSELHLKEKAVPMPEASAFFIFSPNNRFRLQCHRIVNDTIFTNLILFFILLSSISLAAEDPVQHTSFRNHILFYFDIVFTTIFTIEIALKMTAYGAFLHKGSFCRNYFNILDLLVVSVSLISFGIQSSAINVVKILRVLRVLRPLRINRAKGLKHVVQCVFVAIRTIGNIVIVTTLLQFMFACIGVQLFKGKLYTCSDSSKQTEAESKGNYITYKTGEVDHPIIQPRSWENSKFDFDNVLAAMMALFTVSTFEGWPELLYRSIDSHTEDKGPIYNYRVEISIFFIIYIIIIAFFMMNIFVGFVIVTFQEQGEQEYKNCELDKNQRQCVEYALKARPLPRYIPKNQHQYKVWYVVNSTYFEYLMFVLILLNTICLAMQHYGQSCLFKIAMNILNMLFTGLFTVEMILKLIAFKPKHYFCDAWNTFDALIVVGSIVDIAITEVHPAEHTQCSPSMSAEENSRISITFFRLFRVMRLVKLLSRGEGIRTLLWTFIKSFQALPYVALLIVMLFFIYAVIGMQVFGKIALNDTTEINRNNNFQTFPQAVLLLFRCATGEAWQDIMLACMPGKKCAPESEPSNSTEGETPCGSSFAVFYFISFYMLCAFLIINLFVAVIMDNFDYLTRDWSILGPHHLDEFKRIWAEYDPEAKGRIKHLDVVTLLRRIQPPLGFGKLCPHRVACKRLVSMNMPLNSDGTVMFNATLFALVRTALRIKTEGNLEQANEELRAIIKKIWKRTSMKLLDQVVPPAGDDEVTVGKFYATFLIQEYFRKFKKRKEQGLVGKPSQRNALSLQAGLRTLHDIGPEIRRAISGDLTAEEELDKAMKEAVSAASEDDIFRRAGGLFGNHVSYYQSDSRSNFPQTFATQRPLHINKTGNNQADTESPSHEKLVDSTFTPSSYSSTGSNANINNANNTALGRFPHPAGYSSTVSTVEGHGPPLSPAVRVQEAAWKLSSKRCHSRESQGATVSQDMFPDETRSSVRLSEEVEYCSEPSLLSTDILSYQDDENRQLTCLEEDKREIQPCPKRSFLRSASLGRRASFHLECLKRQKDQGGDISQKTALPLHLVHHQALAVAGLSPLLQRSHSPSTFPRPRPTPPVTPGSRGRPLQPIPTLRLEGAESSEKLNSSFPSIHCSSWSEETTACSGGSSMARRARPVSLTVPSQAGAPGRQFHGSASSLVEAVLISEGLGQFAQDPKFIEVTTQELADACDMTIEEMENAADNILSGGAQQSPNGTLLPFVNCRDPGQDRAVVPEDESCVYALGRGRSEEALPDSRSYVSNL
Description: Inhibition of [3H]nitrendipine binding to membrane homogenates of rat cardiac muscle.

Chain of Beta-2 adrenergic receptor (Q8K4Z4 whole entry): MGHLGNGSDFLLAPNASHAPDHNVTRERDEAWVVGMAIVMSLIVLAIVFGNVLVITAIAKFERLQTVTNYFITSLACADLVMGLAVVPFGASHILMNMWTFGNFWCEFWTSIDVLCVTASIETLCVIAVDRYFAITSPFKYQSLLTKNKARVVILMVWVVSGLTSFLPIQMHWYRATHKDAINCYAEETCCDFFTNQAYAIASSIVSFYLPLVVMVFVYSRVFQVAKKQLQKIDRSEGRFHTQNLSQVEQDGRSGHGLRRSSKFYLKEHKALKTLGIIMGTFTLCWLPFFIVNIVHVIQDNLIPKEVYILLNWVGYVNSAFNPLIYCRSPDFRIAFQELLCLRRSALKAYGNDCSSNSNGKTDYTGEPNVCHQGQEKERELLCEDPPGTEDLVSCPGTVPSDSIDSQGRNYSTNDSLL
Chain of Beta-1 adrenergic receptor (B0FL73 whole entry): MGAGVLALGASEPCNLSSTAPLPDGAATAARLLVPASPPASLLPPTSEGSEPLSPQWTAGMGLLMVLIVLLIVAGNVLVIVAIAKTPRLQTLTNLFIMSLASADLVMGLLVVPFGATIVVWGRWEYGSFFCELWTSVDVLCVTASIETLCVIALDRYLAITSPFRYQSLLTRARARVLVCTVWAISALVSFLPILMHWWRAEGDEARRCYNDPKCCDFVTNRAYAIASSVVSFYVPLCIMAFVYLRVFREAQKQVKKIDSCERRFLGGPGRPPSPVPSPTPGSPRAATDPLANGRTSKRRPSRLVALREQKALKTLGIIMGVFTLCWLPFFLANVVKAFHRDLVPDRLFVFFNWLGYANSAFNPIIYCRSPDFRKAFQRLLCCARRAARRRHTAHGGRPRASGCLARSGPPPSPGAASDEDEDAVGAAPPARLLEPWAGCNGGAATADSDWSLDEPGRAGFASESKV

SMILES	Ki (Monoamine oxidase)	Ki [1]	Kb (Canis familiaris)	Kb (Cavia porcellus)	Kb (Oryctolagus cuniculus)	Ki [2]	Ki [3]	Ki [4]	Ki [5]	Ki [6]	EC50 [7]	EC50 [8]	Ki [9]
c1ccc2c(c1)OCC(C1=NCCN1)O2 (stereo unspecified) [IDAZOXAN]	< 10 nM												
CN1CCc2c(Cl)ccc3oc(Br)c(c23)C1		14 nM	40 nM	> 3000 nM	> 1000 nM	72 nM	3300 nM	54 nM	28 nM	783 nM			
CN1CCc2cccc(Cl)c2CC1		16 nM	42 nM	17 nM	600 nM	126 nM	449 nM	9.4 nM		485 nM			
CNC[C@H](O)c1ccc(O)c(O)c1 (stereo in doubt; (+)) [EPINEPHRINE]											436 nM	436 nM	
CC1=C(C(N)=O)C(c2ccc([N+](=O)[O-])cc2)C(C(=O)NCCCN2CCC(c3ccccc3)(c3ccccc3)CC2)=C(C)N1 (stereo unspecified)													> 10 nM
COC(=O)C1=C(C)NC(C)=C(C(=O)NCCCN2CCC(c3ccccc3)(c3ccccc3)CC2)C1c1cccc([N+](=O)[O-])c1 (stereo unspecified)							0.4 nM						30 nM
CC(C)=CCOc1ccc(Cl)c2c1CCN(C)CC2			76 nM	> 3000 nM	150 nM	33 nM	33 nM			87 nM			
C=Cc1sc2ccc(Cl)c3c2c1CN(C)CC3		3.4 nM	29 nM	> 3000 nM	25 nM	1.6 nM	36 nM	24 nM	21 nM	23 nM			
CNC[C@H](O)c1ccc(O)c(O)c1 (stereo in doubt; (-)) [EPINEPHRINE]											15 nM	15 nM	
CNC(=O)C1=C(C)NC(C)=C(C(=O)NCCCN2CCC(c3ccccc3)(c3ccccc3)CC2)C1c1ccc([N+](=O)[O-])cc1 (stereo unspecified)							3.1 nM						> 5000 nM
CCc1sc2ccc(Cl)c3c2c1CN(C)CC3		15 nM	84 nM	> 3000 nM	56 nM	1.2 nM	58 nM	31 nM	35 nM	15 nM			
